Patent US20130224126A1, “Oral Care Product and Methods of Use and Manufacture Thereof” (Colgate-Palmolive Company, priority 2010, published 2013)

Tested on: bacteria/yeast and mold
Test: Antimicrobial Preservation Effectiveness Test (micro robustness), double challenge test
Format: cell-based
Settings: in the mouthwash formulations, separately or in combination
Procedure: The Antimicrobial Preservation Effectiveness Test is used to determine the antimicrobial preservation effectiveness of water-based product formulations by means of a double challenge test. Products are developed to withstand microbial challenges introduced by normal consumer use. The test is run on an aged sample (13 weeks, 40° C.). The test uses two pools of microorganisms: bacteria/yeast and mold. The product is challenged at a 1% level at day 0 and at day 7. Reduction of the inoculum is monitored over a 28 day period. The following are the acceptance criteria for mouth wash formulas. • Bacteria and yeast must show a 99.9% reduction (3 logs) of the bacterial inoculum as determined by plate count on day 7 following each inoculation. No increase after day 7 of the second inoculation and for the remainder of the test within normal variation of the data. • Mold must show a 90.0% reduction (1 log) of the mold inoculum as determined by the plate count on day 14 following the second inoculation (day 21). No increase from day 14 to day 21 of the second inoculation of the test within normal variation of the data.

Compound	microbial control
Cn1sccc1=O [MIT, methylisothiazolinone]	acceptable
OCc1ccccc1 [Benzyl alcohol, benzyl alcohol]	acceptable
